Experiment in all cases: inhibition of tumour cell growth, NCI panel, 48 h
Test [1] relates to 786-0 renal.
For test [2], the system named is IGROV1 ovarian.
The test system of test [3] is K-562 leukemia.
In test [4] the test system is LOX IMVI melanoma.
Test [5] relates to M14 melanoma.
The test system of test [6] is MCF7 breast.
The test system of test [7] is NCI-H460 lung.
For test [8], the system named is SF-268 CNS.
The subject of test [9] is SF-295 CNS.
In test [10] the test system is SN12C renal.

“And” between values parts separate entries of the source, which are not always exact repeats. Equal entries are not always repeated.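 Following 48 hours of exposure in 96-well plates, responses at five concentrations were used to interpolate endpoints linearly. GI50: concentration for 50% inhibition of growth. TGI denotes the concentration required for complete inhibition of growth.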

In the case of `O=Cc1ccc(-c2ccc(-c3nc4ccccc4s3)cc2)o1`, the GI50 in test [1] was over 100 µM; in test [2] it was over 100 µM; in test [3] it was over 100 µM; in [4] it was 60.2 µM; in test [5] it was over 100 µM; in [6] it was 1.53 µM. For the same compound, the GI50 is 76.4 µM in test [7], 72.6 µM in [8], 41.7 µM in [9] and over 100 µM in [10]. Also, the TGI in test [1] is over 100 µM; in test [2], over 100 µM; in test [3], over 100 µM; in [4], over 100 µM; in [5] it was over 100 µM; in test [6], 56.6 µM. Further, the TGI in test [7], in [8], in test [9] and in test [10] was over 100 µM each time.
As for `OCC1OC(N2C=C(c3nc4ccccc4s3)C3C=CC=CC32)C(O)C(O)C1O` (centres undefined), the GI50 was 17.6 µM in [1]; 19.8 µM in test [2]; 19 µM in [3]; 10.9 µM in test [4]; 15.3 µM in [5]; 18.1 µM in test [6]. Also, the GI50 in test [7] was 24 µM; in [8] it was 15 µM; in test [9], 13.4 µM; in test [10] it was 28.8 µM. The TGI in test [1] is over 50 µM; in test [2] it was over 50 µM; in test [3], over 50 µM; in test [4] it was 26 µM; in test [5], over 50 µM; in [6] it was over 50 µM. Further, the TGI in test [7] is over 50 µM; in test [8] it was over 50 µM; in test [9], 37.9 µM; in [10], over 50 µM.
As for `CCOc1ccc(-c2nc3ccc(-c4nc5ccc(N6CCN(C)CC6)cc5[nH]4)cc3[nH]2)cc1`, the GI50 in test [1] was 0.527 µM and 0.198 µM; in test [2] it was 0.514 µM; in test [3] it was 0.696 µM; in [4], 0.188 µM; in [5], 0.264 µM; in test [6], 0.0328 µM. For the same compound, the GI50 in [7] is 0.489 µM; in test [8], 0.361 µM; in test [9], 0.518 µM; in test [10] it was 0.342 µM. Besides, the TGI in test [1] was 1.57 µM and 0.809 µM; in test [2], 2.44 µM; in test [4] it was 0.485 µM; in test [5] it was 2.08 µM; in test [6], 0.38 µM; in test [7], 1.67 µM. Moreover, the values for the TGI in test [8], in test [9] and in test [10] were 1.67 µM, 2.63 µM and 1.61 µM, respectively.
Consider `Nc1nc(Sc2ccc([N+](=O)[O-])c3nonc23)c2ncn(C3OC(CO)C(O)C3O)c2n1` (centres undefined), for which the GI50 in [1] is 0.766 µM; in test [2], 2.58 µM; in test [3], 0.279 µM; in [4], 0.221 µM; in test [5] it was 0.456 µM; in [6] it was 0.373 µM. Moreover, the GI50 in [7] was 0.311 µM; in [8], 0.938 µM; in [9], 1.95 µM; in test [10], 1.48 µM. The TGI in [1] was 14.2 µM; in test [2] it was 24.2 µM; in test [3], over 90.5 µM; in [4], 2.76 µM; in test [5], 8.15 µM; in test [6], 13.6 µM. Moreover, the TGI was 15.5 µM in test [7], 21.3 µM in test [8], over 100 µM in [9] and 21.8 µM in test [10].
`COc1cccc(S(=O)(=O)NC2=NCCN2C(=S)SN2CCn3c2nsc3=S)c1`: the GI50 was 31.6 µM in test [1]; 27.2 µM in test [2]; 31.4 µM in test [3]; 13.2 µM in test [4]; 31.4 µM in [5]; 39.4 µM in [6]. In addition, the GI50 was 58.3 µM in test [7], 59.3 µM in test [8], over 100 µM in test [9] and 36.1 µM in [10]. For the same compound, the TGI was over 100 µM in test [1]; 78.5 µM in [2]; 92.3 µM in test [3]; 26.5 µM in test [4]; over 100 µM in [5]; over 100 µM in [6]. The TGI in test [7], in test [8], in [9] and in test [10] was over 100 µM throughout.
On to `COC(=O)c1c2c(c(C)[n+]([O-])c1C)C(=O)C(NCc1ccccc1)=CC2=O`, for which the GI50 is 3.68 µM in test [1]; 1.71 µM in [2]; 2.94 µM in [3]; 2.72 µM in [4]; 1.97 µM in [5]; 1.65 µM in [6]. The GI50 in test [7] is 2.74 µM; in [8], 2.81 µM; in test [9], 2.6 µM; in [10], 2.13 µM. Further, the TGI in [1] was 23.7 µM; in [2], 4.42 µM; in [3], 16.3 µM; in [4] it was 10.2 µM; in test [5], 4.35 µM; in test [6], 3.73 µM. In addition, the TGI came to 10.9 µM in test [7], 9.69 µM in test [8], 7.5 µM in [9] and 5.48 µM in [10].
For the compound `CCCCCSc1ccc2nc(NC(=O)OCC)sc2c1`, the GI50 in [1] was 0.541 µM; in test [2] it was 0.945 µM; in test [3] it was 0.393 µM; in [4], 0.455 µM; in test [5], 0.446 µM; in [6] it was 0.3 µM. Besides, the GI50 in [7] was 0.523 µM; in test [8], 0.866 µM; in test [9], 0.394 µM; in [10], 0.959 µM. Besides, the TGI in test [1], in [2], in test [3], in test [4], in test [5] and in test [6] was over 100 µM in each case. Besides, the TGI was over 100 µM in test [7], over 100 µM in test [8], 10.6 µM in test [9] and over 100 µM in test [10].

The record behind these values is PubChem BioAssay (NCI).
